Square brackets hold non-standard residues; d marks the D form. Peptide text beside a SMILES is read from it. * marks the point of attachment. Ala(1H-tetrazol-5-yl) = N[C@@H](Cc1nnn[nH]1)C(=O)O; Ms = CS(=O)(=O)*
T1: PAC1R (Homo sapiens, UniProt P41586)
T1 construct: host or cells: CHO-K1
T1 sequence (P41586 21-468): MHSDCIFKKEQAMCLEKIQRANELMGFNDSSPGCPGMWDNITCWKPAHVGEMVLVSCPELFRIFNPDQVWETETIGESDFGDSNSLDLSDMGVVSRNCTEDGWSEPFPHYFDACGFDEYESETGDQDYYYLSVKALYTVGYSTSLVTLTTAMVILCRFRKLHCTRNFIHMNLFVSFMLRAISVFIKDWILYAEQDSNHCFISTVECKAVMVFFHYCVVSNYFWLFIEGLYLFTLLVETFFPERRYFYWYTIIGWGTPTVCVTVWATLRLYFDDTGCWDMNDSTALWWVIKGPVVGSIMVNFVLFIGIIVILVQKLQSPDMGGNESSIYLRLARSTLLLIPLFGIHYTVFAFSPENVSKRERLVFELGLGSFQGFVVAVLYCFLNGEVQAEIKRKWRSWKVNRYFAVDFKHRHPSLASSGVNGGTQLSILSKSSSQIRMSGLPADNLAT

T2: PAC1 receptor (UniProt P41586 21-468, limits assumed)
T2 sequence (looked up): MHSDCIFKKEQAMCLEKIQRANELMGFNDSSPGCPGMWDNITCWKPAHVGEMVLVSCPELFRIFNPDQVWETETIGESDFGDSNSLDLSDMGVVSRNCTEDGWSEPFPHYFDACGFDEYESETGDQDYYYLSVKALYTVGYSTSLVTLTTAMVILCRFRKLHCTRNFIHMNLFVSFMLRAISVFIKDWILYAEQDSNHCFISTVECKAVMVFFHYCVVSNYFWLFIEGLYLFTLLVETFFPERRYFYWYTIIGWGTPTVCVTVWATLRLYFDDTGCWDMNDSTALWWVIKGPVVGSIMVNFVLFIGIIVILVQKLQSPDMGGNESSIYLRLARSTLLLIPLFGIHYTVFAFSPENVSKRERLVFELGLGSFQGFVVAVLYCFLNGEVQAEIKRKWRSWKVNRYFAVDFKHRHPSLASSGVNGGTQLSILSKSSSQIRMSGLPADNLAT

T3: VPAC1 receptor (UniProt P32241 31-457, limits assumed)
T3 sequence (looked up): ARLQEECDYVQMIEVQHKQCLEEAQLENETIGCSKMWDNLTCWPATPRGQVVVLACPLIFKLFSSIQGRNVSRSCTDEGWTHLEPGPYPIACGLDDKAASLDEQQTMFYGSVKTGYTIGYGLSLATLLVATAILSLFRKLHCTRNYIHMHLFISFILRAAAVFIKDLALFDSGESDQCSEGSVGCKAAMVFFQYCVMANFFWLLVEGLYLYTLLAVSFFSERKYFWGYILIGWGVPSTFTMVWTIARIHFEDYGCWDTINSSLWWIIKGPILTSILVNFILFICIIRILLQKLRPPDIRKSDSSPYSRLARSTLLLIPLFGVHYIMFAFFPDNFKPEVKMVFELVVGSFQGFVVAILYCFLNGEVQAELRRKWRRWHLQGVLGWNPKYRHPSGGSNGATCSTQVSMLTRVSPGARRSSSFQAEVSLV


Columns and labels:
[1] = Peptide stability test, Tris buffer (pH 7.0), 60° C. storage, HPLC remaining rate; assay type: physicochemical; settings: 100 μM in Tris buffer pH 7.0
Outline: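 Peptides at 100 μM in Tris buffer (pH 7.0) stored 1 or 2 weeks at 60° C.; unstored sample kept at −30° C. as initial reference. Remaining peptide quantified by reversed-phase HPLC at 220 nm (formic acid/acetonitrile gradient, 40° C. column), as water-corrected remaining rate.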

[2] = test system: rat trigeminal nerve cells; assay: Axon elongation effect on cultured rat trigeminal nerve cells; assay type: cell-based; settings: 1 μM peptide, 24 hours; N=8; Dunnett's test vs control P<0.001; FIG. 5
Protocol: Rats (Sic: Sprague-Dawley, 17-day-old, including female and male) purchased from Japan SLC, Inc. were euthanized by carbon dioxide gas inhalation and the trigeminal ganglion was harvested. The harvested trigeminal ganglion was washed with Hanks' balanced salt solution (HBSS) and then treated with collagenase A (Roche) for 30 minutes at 37° C. A neuron dispersion (Wako) was then used according to protocol for dispersion of the cells. Debris removal solution (Miltenyi biotec) and Myelin removal beads II (Miltenyi biotec) were used according to protocol to remove the debris and myelin. After suspending the isolated trigeminal nerve cells in culture solution, they were seeded onto a polylysine/laminin-coated 8-well chamber slide (Corning) at 2.5×10^3 cells/well. The culture solution used was Neurobasal-A containing B27 supplement (final concentration: 2%) and GlutaMAX (final concentration: 2 mM) and penicillin/streptomycin (final concentration: 1%). The culturing conditions were a carbon dioxide concentration of 5%, an air concentration of 95%, a humidity of 100% and a temperature of 37° C. […] The control was replaced with peptide-free culture solution. Culture medium replacement was followed by further culturing for 24 hours.
The culture medium was replaced with peptide-containing culture solution, and the rat trigeminal nerve cells cultured for 24 hours were immersed in a 2% paraformaldehyde solution at room temperature for 20 minutes for fixing. The cells were washed with PBS, and then 2% bovine serum albumin containing 0.1% TritonX-100 was added and reaction was conducted for 30 minutes. After washing with PBS, it was reacted with phospho-neurofilament H antibody (Merck, MAB1592-C) specifically recognizing neurofilaments forming the neuron bodies and neurites, for 1 hour at room temperature. After reaction for 1 hour, a fluorescent-labeled secondary antibody (Invitrogen Corp., #A-11031) was reacted at room temperature for 1 hour for fluorescent staining of the sample, and the stained cells were observed under a fluorescent microscope. The stained cell image was captured as an image from the fluorescent microscope and loaded into a computer.
In order to evaluate the extent of neurite formation by the rat trigeminal nerve cells, cells with neurites having lengths of at least twice the cell body diameter in the stained cell image in the computer were counted as neurite-forming cells, and the percentage (%) of this number of cells over the total cell count was calculated (Otori Y. Wei J Y, Barnstable C J. Invest. Ophthalmol Vis Sci (1998) 39, 972-981). The significant difference with respect to the control was determined by Dunnett's test (P<0.001).

PAC1R = target: T1, PAC1R; assay: cAMP assay in PAC1R high-expressing CHO-K1 cell line; assay type: cell-based; settings: Table 12; cAMP inducing effect, CHO-K1 PAC1R high-expressing cells
Protocol: The cells were cultured for 18 to 24 hours at 37° C. in a 5% C02 incubator, adhering the cells to the plate. […] A 5-fold dilution series was then prepared with the same Cell assay buffer and used in an assay. The cAMP assay was carried out using a Hit Hunter cAMP Assay for Biologics kit (product of DiscoveRx, Cat. No. 90-0075LM25), according to the included kit instructions. […] Next, the culture medium was removed from the CHO-K1 cell culture plate, washing was performed with PBS, and the peptide-cAMP antibody liquid mixtures were added to the cells and incubated for 30 minutes under a 5% CO2 atmosphere at 37° C. A working detection solution was then added and the culture plate was shielded from light with aluminum foil and incubated at 25° C. for 1 hour. After incubation, Solution A was added and the culture plate was shielded from light with aluminum foil and then incubated at 25° C. for 3 hours. […] The obtained value for the Relative Luminescence Unit (RLU) was analyzed with GraphPad Prism Ver 6.05 (product of Graph Pad) and the EC50 value was calculated for each peptide. […] FIG. 2 and Table 11. […] A 5-fold dilution series was then prepared with the same Cell assay buffer and used in an assay. […] A 5-fold dilution series was then prepared with the same Cell assay buffer and used in an assay.

PAC1 receptor = target: T2, PAC1 receptor; assay: cell-based or functional assay
VPAC1 receptor = target: T3, VPAC1 receptor; assay: cell-based or functional assay

Row | Molecule | axon elongation (percentage of neurite-forming cells) [2] | EC50 (PAC1R), cAMP inducing effect (PAC1 receptor) [nM] | EC50 (VPAC1R), cAMP inducing effect (VPAC1 receptor) [nM] | other results
1 | CC[C@H](C)[C@H](NC(=O)CNC(=O)[C@H](Cc1nnn[nH]1)NC(=O)[C@H](CO)NC(=O)[C@H](Cc1c[nH]cn1)NS(C)(=O)=O)C(=O)N[C@@H](Cc1ccccc1)C(=O)N[C@H](C(=O)N[C@@H](Cc1nnn[nH]1)C(=O)N[C@@H](CO)C(=O)N[C@@H](Cc1ccc(O)cc1)C(=O)N[C@@H](CO)C(=O)N[C@@H](CCCNC(=N)N)C(=O)N[C@@H](Cc1ccc(O)cc1)C(=O)N[C@@H](CCCNC(=N)N)C(=O)N[C@@H](CCCCN)C(=O)N[C@@H](CCC(N)=O)C(=O)N[C@@H](CC(C)C)C(=O)N[C@@H](C)C(=O)N[C@H](C(=O)N[C@@H](CCCCN)C(=O)N[C@@H](CCCCN)C(=O)N[C@@H](Cc1ccc(O)cc1)C(=O)N[C@@H](CC(C)C)C(=O)N[C@@H](C)C(=O)N[C@@H](C)C(=O)N[C@H](C(=O)N[C@@H](CC(C)C)C(N)=O)C(C)C)C(C)C)[C@@H](C)O [Peptide 12] (Ms-HS[Ala(1H-tetrazol-5-yl)]GIFT[Ala(1H-tetrazol-5-yl)]SYSRYRKQLAVKKYLAAVL-NH2) | exhibited axon elongation-promoting effects |  |  | remaining rate after correction for water, 60° C., 1 week preservation ([1]; Table 7): 97.0%; remaining rate after correction for water, 60° C., 2 weeks preservation ([1]; Table 7): 93.6%
2 | CC[C@H](C)[C@H](NC(=O)CNC(=O)[C@H](Cc1nnn[nH]1)NC(=O)[C@H](CO)NC(=O)[C@H](Cc1c[nH]cn1)NC(C)=O)C(=O)N[C@@H](Cc1ccccc1)C(=O)N[C@H](C(=O)N[C@@H](Cc1nnn[nH]1)C(=O)N[C@@H](CO)C(=O)N[C@@H](Cc1ccc(O)cc1)C(=O)N[C@@H](CO)C(=O)N[C@@H](CCCNC(=N)N)C(=O)N[C@@H](Cc1ccc(O)cc1)C(=O)N[C@@H](CCCNC(=N)N)C(=O)N[C@@H](CCCCN)C(=O)N[C@@H](CCC(N)=O)C(=O)N[C@@H](C)C(=O)N[C@@H](C)C(=O)N[C@H](C(=O)N[C@@H](CCCCN)C(=O)N[C@@H](CCCCN)C(=O)N[C@@H](Cc1ccc(O)cc1)C(=O)N[C@@H](CC(C)C)C(=O)N[C@@H](C)C(=O)N[C@@H](C)C(=O)N[C@H](C(=O)N[C@@H](CC(C)C)C(N)=O)C(C)C)C(C)C)[C@@H](C)O [Peptide 18] (Ac-HS[Ala(1H-tetrazol-5-yl)]GIFT[Ala(1H-tetrazol-5-yl)]SYSRYRKQAAVKKYLAAVL-NH2) | exhibited axon elongation-promoting effects |  |  | remaining rate after correction for water, 60° C., 1 week preservation ([1]; Table 7): 96.7%; remaining rate after correction for water, 60° C., 2 weeks preservation ([1]; Table 7): 90.6%; EC50 (PAC1R): 0.061 nM
3 | CC[C@H](C)[C@H](NC(=O)[C@H](C)NC(=O)[C@H](Cc1nnn[nH]1)NC(=O)[C@H](CO)NC(=O)[C@H](Cc1c[nH]cn1)NS(C)(=O)=O)C(=O)N[C@@H](Cc1ccccc1)C(=O)N[C@H](C(=O)N[C@@H](Cc1nnn[nH]1)C(=O)N[C@@H](CO)C(=O)N[C@@H](Cc1ccc(O)cc1)C(=O)N[C@@H](CO)C(=O)N[C@@H](CCCNC(=N)N)C(=O)N[C@@H](Cc1ccc(O)cc1)C(=O)N[C@@H](CCCNC(=N)N)C(=O)N[C@@H](CCCCN)C(=O)N[C@@H](CCC(N)=O)C(=O)N[C@@H](C)C(=O)N[C@@H](C)C(=O)N[C@H](C(=O)N[C@@H](CCCCN)C(=O)N[C@@H](CCCCN)C(=O)N[C@@H](Cc1ccc(O)cc1)C(=O)N[C@@H](CC(C)C)C(=O)N[C@@H](C)C(=O)N[C@@H](C)C(=O)N[C@H](C(=O)N[C@@H](CC(C)C)C(N)=O)C(C)C)C(C)C)[C@@H](C)O [Peptide 31] (Ms-HS[Ala(1H-tetrazol-5-yl)]AIFT[Ala(1H-tetrazol-5-yl)]SYSRYRKQAAVKKYLAAVL-NH2) | exhibited axon elongation-promoting effects |  |  | remaining rate after correction for water, 60° C., 2 weeks preservation ([1]; Table 7-2): 90.1%
4 | HSXGIFTXSYSRYRKQLAVKKYLAAVL (N-terminal acetyl (Ac-); Tz (aspartic acid with carboxyl group replaced by tetrazole) at positions 3 and 8; C-terminal amide (NH2)) [Peptide 9] |  | 0.063 | 0.043 | 
5 | HSXGIFTXSYSRYRKQXAVKKYLAAVL (N-terminal acetyl (Ac-); Tz (aspartic acid with carboxyl group replaced by tetrazole) at positions 3 and 8; norleucine at position 17; C-terminal amide (NH2)) [Peptide 8] |  | 0.072 | 0.046 | 
6 | HSXGIFTXSYSRYRKQXAVKKYLAAVL (Tz (aspartic acid with carboxyl group replaced by tetrazole) at positions 3 and 8; norleucine at position 17; C-terminal amide (NH2)) [Peptide 6] |  | 0.079 | 0.093 | 
7 | HSXGIFTXSYSRYRKQLAVKKYLAAVL (Tz (aspartic acid with carboxyl group replaced by tetrazole) at positions 3 and 8; C-terminal amide (NH2)) [Peptide 7] |  | 0.112 | 0.114 | 
